Laboratory results: patent US20070117770A1, “Human ribosomal DNA (rDNA) and ribosomal RNA (rRNA) nucleic acids and uses thereof” (Cylene Pharmaceuticals, Inc., priority 2005, published 2007)

What was measured:
Experiment in all cases: Protein kinase inhibition assay
[1] = test system: CK1(y); type: biochemical, yeast; conditions: 2.5 μM
Experimental: (§1) Certain compounds were tested for activity in protein kinase inhibition assays. All substrates were dissolved and diluted to working stocks in de-ionized water, apart from histone H1 (10× working stock in 20 mM MOPS pH 7.0), PDKtide (10× working stock in 50 mM Tris pH 7.0) ATF2 (which is typically stored at a 20× working stock in 50 mM Tris pH 7.5, 150 mM NaCl, 0.1 mM EGTA, 0.03% Brij-35, 50% glycerol, 1 mM benzamidine, 0.2 mM PMSF and 0.1% R-mercaptoethanol), KKLNRTLSFAEPG (SEQ ID NO:203) and RRRLSFAEPG (SEQ ID NO:204) (50 mM HEPES pH 7.4) and GGEEEEYFELVKKKK (SEQ ID NO:205) (20 mM MOPS pH 7.0). All kinases were pre-diluted to a 10× working concentration prior to addition into the assay. The composition of the dilution buffer for each kinase is detailed below.
(§2) In a final reaction volume of 25 μl, CK1 (y) (5-10 mU) is incubated with 8 mM MOPS pH 7.0, 0.2 mM EDTA, 200 μM KRRRALS(p)VASLPGL (SEQ ID NO:214), 10 mM MgAcetate and [gamma-33P-ATP] (specific activity approx. 500 cpm/pmol, concentration as required). The reaction is initiated by the addition of the MgATP mix. After incubation for 40 minutes at room temperature, the reaction is stopped by the addition of 5 μL of a 3% phosphoric acid solution. 10 μl of the reaction is then spotted onto a P30 filtermat and washed three times for 5 minutes in 75 mM phosphoric acid and once in methanol prior to drying and scintillation counting.

[2] = target: Flt1(h) (Homo sapiens, UniProt P17948); type: biochemical; conditions: read-out: percent residual activity of Flt1(h)
Sequence of Flt1(h) (P17948 27-1338): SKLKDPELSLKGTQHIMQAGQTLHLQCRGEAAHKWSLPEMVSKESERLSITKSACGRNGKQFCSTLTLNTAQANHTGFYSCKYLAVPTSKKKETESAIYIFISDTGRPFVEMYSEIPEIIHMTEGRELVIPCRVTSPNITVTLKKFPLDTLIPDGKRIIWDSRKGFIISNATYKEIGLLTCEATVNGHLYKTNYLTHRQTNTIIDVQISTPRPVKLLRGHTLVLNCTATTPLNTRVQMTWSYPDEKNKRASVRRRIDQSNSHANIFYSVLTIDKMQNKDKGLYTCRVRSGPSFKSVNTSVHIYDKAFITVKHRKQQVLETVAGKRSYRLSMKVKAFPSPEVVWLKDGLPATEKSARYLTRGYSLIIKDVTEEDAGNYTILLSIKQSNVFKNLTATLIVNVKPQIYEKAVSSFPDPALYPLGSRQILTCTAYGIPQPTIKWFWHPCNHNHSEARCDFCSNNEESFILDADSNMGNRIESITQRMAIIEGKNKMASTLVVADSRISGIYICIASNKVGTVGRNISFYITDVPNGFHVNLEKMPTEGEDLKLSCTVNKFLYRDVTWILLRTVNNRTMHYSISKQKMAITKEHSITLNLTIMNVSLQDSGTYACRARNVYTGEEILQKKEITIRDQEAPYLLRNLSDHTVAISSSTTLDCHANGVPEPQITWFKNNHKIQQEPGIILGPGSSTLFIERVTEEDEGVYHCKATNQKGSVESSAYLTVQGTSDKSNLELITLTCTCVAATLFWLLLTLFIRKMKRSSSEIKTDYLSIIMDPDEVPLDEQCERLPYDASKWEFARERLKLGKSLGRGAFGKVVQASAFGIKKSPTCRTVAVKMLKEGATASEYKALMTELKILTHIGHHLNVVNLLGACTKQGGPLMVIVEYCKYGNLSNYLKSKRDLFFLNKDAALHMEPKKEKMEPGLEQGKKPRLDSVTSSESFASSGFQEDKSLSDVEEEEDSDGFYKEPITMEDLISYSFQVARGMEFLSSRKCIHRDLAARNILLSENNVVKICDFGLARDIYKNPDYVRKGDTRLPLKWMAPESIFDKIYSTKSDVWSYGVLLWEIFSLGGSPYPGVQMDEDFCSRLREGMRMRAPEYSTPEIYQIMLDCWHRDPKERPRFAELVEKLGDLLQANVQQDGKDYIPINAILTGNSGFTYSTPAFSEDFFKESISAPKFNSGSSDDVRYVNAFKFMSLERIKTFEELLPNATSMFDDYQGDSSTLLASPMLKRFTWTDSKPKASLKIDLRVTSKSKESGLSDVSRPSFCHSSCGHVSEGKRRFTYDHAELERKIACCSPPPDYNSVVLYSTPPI
Experimental: as §1
as §2, with “Flt1 (h)” for “CK1 (y)”, “250” for “200”, “KKKSPGEYVNIEFG” for “KRRRALS(p)VASLPGL”, “NO:207),” for “NO:214),”, “μl” for “μL”

[3] = target: MAPK1(h) (Homo sapiens, UniProt P27361); type: biochemical; conditions: read-out: percent residual activity of MAPK1(h)
Sequence of MAPK1(h) (P27361 whole entry): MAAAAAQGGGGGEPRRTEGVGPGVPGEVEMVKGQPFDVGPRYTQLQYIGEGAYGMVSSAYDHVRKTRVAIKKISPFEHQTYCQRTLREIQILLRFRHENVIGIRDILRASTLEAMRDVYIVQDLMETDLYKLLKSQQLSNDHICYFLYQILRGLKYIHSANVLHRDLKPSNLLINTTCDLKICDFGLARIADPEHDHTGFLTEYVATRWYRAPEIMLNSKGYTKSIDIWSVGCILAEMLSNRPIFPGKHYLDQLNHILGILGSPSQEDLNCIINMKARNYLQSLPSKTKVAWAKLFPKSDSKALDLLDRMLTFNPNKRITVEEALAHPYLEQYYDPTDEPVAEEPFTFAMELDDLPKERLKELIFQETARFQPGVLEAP
Experimental: as §1
In a final reaction volume of 25 μl, MAPK1 (h) (5-10 mU) is incubated with 25 mM Tris pH 7.5, 0.02 mM EGTA, 250 μM peptide, 10 mM MgAcetate and [gamma-33P-ATP] (specific activity approx. 500 cpm/pmol, concentration as required). The reaction is initiated by the addition of the MgATP mix. After incubation for 40 minutes at room temperature, the reaction is stopped by the addition of 5 μl of a 3% phosphoric acid solution. 10 μl of the reaction is then spotted onto a P30 filtermat and washed three times for 5 minutes in 75 mM phosphoric acid and once in methanol prior to drying and scintillation counting.

[4] = target: T1, MKK7β(h) (Homo sapiens, UniProt O14733); type: biochemical; conditions: for remaining activity at 2.5 µM: read-out: percent residual activity of MKK7β(h)
T1 sequence (O14733 1-419): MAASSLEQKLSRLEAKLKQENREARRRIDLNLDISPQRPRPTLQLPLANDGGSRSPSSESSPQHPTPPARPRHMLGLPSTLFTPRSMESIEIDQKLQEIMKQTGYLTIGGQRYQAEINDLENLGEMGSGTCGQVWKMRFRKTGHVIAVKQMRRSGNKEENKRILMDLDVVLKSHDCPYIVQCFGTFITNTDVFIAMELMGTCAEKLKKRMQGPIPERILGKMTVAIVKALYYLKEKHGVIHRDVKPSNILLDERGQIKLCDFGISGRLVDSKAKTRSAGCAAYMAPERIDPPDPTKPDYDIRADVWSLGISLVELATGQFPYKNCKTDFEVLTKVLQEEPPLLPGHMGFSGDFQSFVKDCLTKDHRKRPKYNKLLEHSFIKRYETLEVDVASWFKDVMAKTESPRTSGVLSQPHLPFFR
Experimental: as §1
The reaction is initiated by the addition of the MgATP. After incubation for 40 minutes at room temperature, 5 μl of this incubation mix is used to initiate a JNK1α1 (h) assay, which is exactly as described on page 11 of this book except that ATF2 is replaced with 250 μM peptide.

[5] = target: NEK6(h) (Homo sapiens, UniProt Q9HC98); type: biochemical; conditions: read-out: percent residual activity of NEK6(h)
Sequence of NEK6(h) (Q9HC98 whole entry): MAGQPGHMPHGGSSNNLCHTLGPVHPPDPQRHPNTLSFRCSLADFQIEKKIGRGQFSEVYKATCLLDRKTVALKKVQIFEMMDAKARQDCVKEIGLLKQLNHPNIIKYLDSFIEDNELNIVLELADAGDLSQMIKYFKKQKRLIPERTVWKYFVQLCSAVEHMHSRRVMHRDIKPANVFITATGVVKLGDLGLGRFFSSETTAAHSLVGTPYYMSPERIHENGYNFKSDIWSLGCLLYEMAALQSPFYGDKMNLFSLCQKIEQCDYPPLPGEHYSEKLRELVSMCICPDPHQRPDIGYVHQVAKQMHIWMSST
Experimental: as §1
as §2, with “NEK6 (h)” for “CK1 (y)”, “300” for “200”, “FLAKSFGSPNRAYKK” for “KRRRALS(p)VASLPGL”, “NO:221),” for “NO:214),”, “μl” for “μL”

[6] = target: PDGFRβ(h) (Homo sapiens, UniProt P09619); type: biochemical; conditions: read-out: percent residual activity of PDGFRβ(h)
Sequence of PDGFRβ(h) (P09619 33-1106): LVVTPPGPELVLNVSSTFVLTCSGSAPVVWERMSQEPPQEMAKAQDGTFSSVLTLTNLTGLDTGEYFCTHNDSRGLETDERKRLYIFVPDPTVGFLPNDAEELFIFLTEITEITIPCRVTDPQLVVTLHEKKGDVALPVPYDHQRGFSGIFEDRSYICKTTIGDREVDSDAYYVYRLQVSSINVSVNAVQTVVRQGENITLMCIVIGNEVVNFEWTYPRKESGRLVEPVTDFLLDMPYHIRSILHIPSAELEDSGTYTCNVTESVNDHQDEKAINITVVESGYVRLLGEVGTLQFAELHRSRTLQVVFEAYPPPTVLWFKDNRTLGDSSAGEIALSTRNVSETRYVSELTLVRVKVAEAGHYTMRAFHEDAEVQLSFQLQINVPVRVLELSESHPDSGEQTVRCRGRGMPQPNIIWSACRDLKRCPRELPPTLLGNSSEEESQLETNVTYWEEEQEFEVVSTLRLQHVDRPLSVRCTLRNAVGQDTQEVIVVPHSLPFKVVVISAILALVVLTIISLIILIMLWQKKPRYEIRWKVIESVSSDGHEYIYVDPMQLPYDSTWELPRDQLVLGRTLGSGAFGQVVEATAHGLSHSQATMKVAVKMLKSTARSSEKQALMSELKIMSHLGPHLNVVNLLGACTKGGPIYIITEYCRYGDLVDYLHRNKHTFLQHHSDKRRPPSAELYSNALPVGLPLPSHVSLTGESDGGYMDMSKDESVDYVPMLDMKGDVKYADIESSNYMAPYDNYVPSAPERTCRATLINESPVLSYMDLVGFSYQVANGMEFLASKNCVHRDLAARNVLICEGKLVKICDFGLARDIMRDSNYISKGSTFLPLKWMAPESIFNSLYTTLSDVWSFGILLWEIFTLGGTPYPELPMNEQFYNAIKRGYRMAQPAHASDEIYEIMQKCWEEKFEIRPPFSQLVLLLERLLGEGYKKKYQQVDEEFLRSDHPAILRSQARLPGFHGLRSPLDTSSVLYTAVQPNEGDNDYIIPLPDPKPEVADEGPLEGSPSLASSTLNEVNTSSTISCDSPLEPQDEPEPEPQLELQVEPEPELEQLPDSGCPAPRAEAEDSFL
Experimental: as §1
as §2, with “PDGFRβ (h)” for “CK1 (y)”, “0.1 mg/ml poly(Glu, Tyr) 4:1, 10 mM MnCl2,” for “200 μM KRRRALS(p)VASLPGL (SEQ ID NO:214),”, “μl” for “μL”, “Filtermat A” for “P30 filtermat”

percent residual activity of CK1(y) [1]	remaining activity at 2.5 µM [2]	remaining activity at 2.5 µM [3]	remaining activity at 2.5 µM [4]	remaining activity at 2.5 µM [5]	remaining activity at 2.5 µM [6]	inhibition of MKK7B ([4]; 2.5 μM)	SMILES
78%	78%	92%	111%	78%	103%		CN1CCCC1CCNC(=O)c1cn2c3c(c(N4CCC(c5cnccn5)C4)c(F)cc3c1=O)Oc1cc3ccccc3cc1-2 (stereo not shown) [Compound A-1]
77%	106%	94%	1%	111%	103%	inhibits MKK7B	CC(=O)N1CCN(c2ccc3c(=O)c(C(=O)NCCN4CCCC4)c4n(C)c5ccccc5n4c3n2)CC1 [Compound B-1]
